“And” between values parts separate entries of the source, which are not always exact repeats. Identical values can stand only once. “Also recorded” adds a separate entry of the source. Counter-ions that a name gives are not always drawn. Like-named read-outs stand apart in the source and are kept apart here.
What was measured:
Vero 76 cells = assay: cells; format: cell-based, African green monkey
SARS-CoV (strain Urbani) [1] = assay: microbe, parasite or virus in culture; format: cell-based
SARS-CoV (strain Urbani) [2] = assay: microbe, parasite or virus in culture; format: cell-based; remark: listed apart in the source
[3] = system: SARS-CoV Toronto-2 strain; assay: microbe, parasite or virus in culture; format: cell-based
[4] = system: SARS-CoV Toronto-2 strain; assay: microbe, parasite or virus in culture; format: cell-based; settings: Severe acute respiratory syndrome coronavirus, Vero 76, read-out: VYR assay EC90 ± S.D.
SARS-CoV CHUK-W1 strain [5] = assay: microbe, parasite or virus in culture; format: cell-based; settings: Severe acute respiratory syndrome coronavirus, Vero 76, read-out: VYR assay EC90 ± S.D.
[6] = system: SARS-CoV Frankfurt-1 strain; assay: microbe, parasite or virus in culture; format: cell-based
BALB/c mice = settings: mouse, in vivo, ip
SARS-CoV (Urbani) = system: SARS-CoV (Urbani); parameters: species or system BALB/c mice; settings: mouse, in vivo
mice = settings: mouse, in vivo, ip; cited from earlier work
lungs = settings: mouse, in vivo
SARS-CoV CHUK-W1 strain [7] = assay: microbe, parasite or virus in culture; format: cell-based
[8] = system: SARS-CoV Frankfurt-1 strain; assay: microbe, parasite or virus in culture; format: cell-based; settings: Severe acute respiratory syndrome coronavirus, Vero 76, read-out: VYR assay EC90 ± S.D.
[9] = read-out: Neutral red uptake assay IC50
[10] = read-out: Virus yield reduction assay IC50
[11] = read-out: Neutral red uptake assay EC50
[12] = read-out: Virus yield reduction assay EC90
[13] = Chlorocebus sabaeus, Vero 76, read-out: Neutral red uptake assay IC50
[14] = Chlorocebus sabaeus, Vero 76, read-out: Virus yield reduction assay IC50
[15] = Severe acute respiratory syndrome coronavirus, Vero 76, read-out: Neutral red uptake assay EC50
[16] = Severe acute respiratory syndrome coronavirus, Vero 76, read-out: Virus yield reduction assay EC90
[17] = Severe acute respiratory syndrome coronavirus, Vero 76, read-out: Neutral red uptake assay EC50 ± S.D.

SMILES: CCOS(=O)(=O)[O-].CC[n+]1c2ccccc2nc2ccccc21 [Phenazine ethosulfate]
- IC50 (Vero 76 cells; [9]): 6.6 ± 4.7 µM
- IC50 (Vero 76 cells; [10]): 6.6 ± 4.7 µM
- Neutral red uptake assay SI (SARS-CoV (strain Urbani) [1]): 1.3
- EC50 (SARS-CoV (strain Urbani) [1]; [11]): 5.2 ± 2.9 µM
- Virus yield reduction assay SI (SARS-CoV (strain Urbani) [2]): 1.1
- EC90 (SARS-CoV (strain Urbani) [2]; [12]): 6.1 ± 4.3 µM

SMILES: c1ccc2c(c1)Nc1ccccc1S2 [Phenothiazine]
- IC50 (Vero 76 cells; [13]): 56.5 ± 61.5 µM
- Neutral red uptake assay SI (SARS-CoV (strain Urbani) [1]): 2.6

SMILES: c1ccc2c(c1)Oc1ccccc1S2 [Phenoxathiin]
- IC50 (Vero 76 cells; [13]): 858 ± 208 µM
- IC50 (Vero 76 cells; [14]): 968 ± 65 µM
- Neutral red uptake assay SI (SARS-CoV (strain Urbani) [1]): 1.1
- EC50 (SARS-CoV (strain Urbani) [1]; [15]): 763 ± 475 µM
- Virus yield reduction assay SI (SARS-CoV (strain Urbani) [2]): 1.3
- EC90 (SARS-CoV (strain Urbani) [2]; [16]): 752 ± 497 µM

SMILES: c1ccc2c(c1)Nc1ccccc1O2 [Phenoxazine]
- IC50 (Vero 76 cells; [13]): 74.5 ± 20.2 µM
- Inhibition of virus replication in vitro (in words) (SARS-CoV (strain Urbani) [1]): essentially inactive
- Neutral red uptake assay SI (SARS-CoV (strain Urbani) [1]): <1

SMILES: CN(C)CCCN1c2ccccc2Sc2ccccc21 [Promazine, 10-(3-(dimethylamino)propyl)phenothiazine]
- Neutral red uptake assay SI [3]: 1.5
- EC50 [3, 17]: 22.6 ± 12.8 µM
- EC90 [4]: 20.7 ± 9.5 µM
- EC90 (SARS-CoV CHUK-W1 strain [5]): 16.5 ± 11.1 µM
- Neutral red uptake assay SI [6]: 1.6
- EC50 [6, 17]: 21 ± 15.4 µM
- Lethality (BALB/c mice; BALB/c): lethal to all mice by day 3
- Lethality (BALB/c mice): somewhat lethal
- Duration of virus replication in the lungs (in words) (SARS-CoV (Urbani)): prolonged virus replication to 14 days; also recorded: significantly prolonged
- Virus titer ± S.D., Day 3 (SARS-CoV (Urbani)): 5.6 ± 1.0 Log10 CCID50/g and 5.6 ± 0.4 Log10 CCID50/g and 5.7 ± 0.3 Log10 CCID50/g and 5.6 ± 0.0 Log10 CCID50/g and 5.8 ± 0.4 Log10 CCID50/g and 6.0 ± 0.6 Log10 CCID50/g
- Virus titer ± S.D., Day 14 (SARS-CoV (Urbani)): 3.4 ± 0.1 Log10 CCID50/g and 3.4 ± 0.0 Log10 CCID50/g
- Inhibition of virus replication in the lungs, therapeutic treatment (in words) (SARS-CoV (Urbani); ip): not efficacious
- Reduction of viral replication in the lungs at day 3 (in words) (SARS-CoV (Urbani); ip): did not reduce virus lung titers; also recorded: no significant reduction
- Virus titer ± S.D., Day 3 (SARS-CoV (Urbani); ip): 5.6 ± 0.0 Log10 CCID50/g and 6.0 ± 0.6 Log10 CCID50/g and 5.4 ± 0.1 Log10 CCID50/g
- Virus titer ± S.D., Day 7 (SARS-CoV (Urbani); ip): <0.75 Log10 CCID50/g
- LD50 (mice): 140 mg/(kg day)
- Histopathological examination of lungs (lungs): no signs of pathology
- Neutral red uptake assay SI (SARS-CoV CHUK-W1 strain [7]): 2.2
- EC50 (SARS-CoV CHUK-W1 strain [7]; [17]): 15.6 ± 8.5 µM
- Virucidal activity (virus titer reduction after exposure) (SARS-CoV): did not result in virus titer reduction
- IC50 (Vero 76 cells; [13]): 13.5 ± 6.2 µM
- IC50 (Vero 76 cells; [14]): 18.2 ± 14.6 µM
- Neutral red uptake assay SI (SARS-CoV (strain Urbani) [1]): 1.2 and <1
- EC50 (SARS-CoV (strain Urbani) [1]; [15]): 10.8 ± 8.1 µM
- EC50 (SARS-CoV (strain Urbani) [1]; [17]): 14 ± 6.1 µM
- EC90 [8]: 11.6 ± 6.3 µM
- Virus yield reduction assay SI (SARS-CoV (strain Urbani) [2]): 2.1
- EC90 (SARS-CoV (strain Urbani) [2]; Severe acute respiratory syndrome coronavirus, Vero 76, read-out: VYR assay EC90 ± S.D.): 7.8 ± 3.1 µM
- EC90 (SARS-CoV (strain Urbani) [2]; [16]): 8.3 ± 2.8 µM

SMILES: CCC(=O)c1ccc2c(c1)N(CCCN(C)C)c1ccccc1S2 [Propionylpromazine·HCl]
- IC50 (Vero 76 cells; [14]): 19.3 ± 2.2 µM
- Inhibition of virus replication in vitro (in words) (SARS-CoV (strain Urbani) [1]): essentially inactive
- Neutral red uptake assay SI (SARS-CoV (strain Urbani) [1]): <1
- EC50 (SARS-CoV (strain Urbani) [1]; [15]): 24.3 ± 15.6 µM
- Virus yield reduction assay SI (SARS-CoV (strain Urbani) [2]): 1.4

SMILES: CN1CCN(CCCN2c3ccccc3Sc3ccc(C(F)(F)F)cc32)CC1 [Trifluoperazine dimaleate]
- IC50 (Vero 76 cells; [13]): 9.5 ± 3.1 µM
- IC50 (Vero 76 cells; [14]): 8 ± 2.1 µM
- Neutral red uptake assay SI (SARS-CoV (strain Urbani) [1]): 1.3
- EC50 (SARS-CoV (strain Urbani) [1]; [15]): 7.3 ± 4.7 µM
- Virus yield reduction assay SI (SARS-CoV (strain Urbani) [2]): <1
- EC90 (SARS-CoV (strain Urbani) [2]; [12]): 10.2 ± 4.4 µM

SMILES: CN(C)CCCN1c2ccccc2Sc2ccc(C(F)(F)F)cc21.Cl [Trifluopromazine·HCl]
- IC50 (Vero 76 cells; [9]): 18 ± 5.6 µM
- IC50 (Vero 76 cells; [10]): 18 ± 5.6 µM
- Neutral red uptake assay SI (SARS-CoV (strain Urbani) [1]): 1.4
- EC50 (SARS-CoV (strain Urbani) [1]; [11]): 13.3 ± 5.8 µM
- Virus yield reduction assay SI (SARS-CoV (strain Urbani) [2]): 1.4
- EC90 (SARS-CoV (strain Urbani) [2]; [12]): 12.8 ± 1.9 µM

— PMC2582943 (Antiviral Research, 2008)
